Data set [1] in a line: Molar enthalpy of transition or fusion. As to conditions: Crystal; DSC.
The conditions of data set [2]: Crystal; DTA.

Two compounds from the NIST ThermoML archive (doi:10.1016/j.tca.2016.07.008) can be followed below.

± gives the expanded uncertainty stated by the source.

For the compound `COc1cccc(/C=N/NC(=O)c2ccncc2)c1O` [N'-(2-hydroxy-3-methoxybenzylidene)isonicotinohydrazide], in data set [1], the “Molar enthalpy of transition or fusion” value turned out to be 11.9 ± 0.263 kcal/mol. In data set [2], the Normal melting temperature was determined as 236.70 ± 2 °C.

Consider `O=C(N/N=C/c1ccccc1O)c1ccncc1` [N'-(2-hydroxybenzylidene)isonicotinohydrazide], for which, in data set [1], the “Molar enthalpy of transition or fusion” value turned out to be 10.9 ± 0.239 kcal/mol. In addition, in data set [2], the Normal melting temperature worked out at 248.20 ± 2 °C.
